The values below come from ChEMBL document CHEMBL1125529, “NMDA antagonist activity of (+/-)-(2SR,4RS)-4-(1H-tetrazol-5-ylmethyl)piperidine-2-carboxylic acid resides with the (-)-2R,4S-isomer” (J Med Chem, 1992).

Structures are written as SMILES.

Test [1] has as its target Glutamate NMDA receptor. As to the kind of experiment: Compound was tested for the antagonistic activity against depolarizations due to NMDA using rat cortical slice preparation. It is filed as functional.
Test [2] concerns the target Glutamate NMDA receptor. In words: Ability to inhibit [3H]-CGS- 19755 binding to NMDA receptor. The test is classed as protein-complex assay.

On to `O=C(O)[C@H]1C[C@@H](Cc2nnn[nH]2)CCN1` (stereo in doubt; (+)-1), for which the IC50 (in general, the point on the concentration scale where inhibition reaches its midpoint) in test [1] worked out at 39100 nM; in test [2], 2390 nM.
On to `O=C(O)[C@H]1C[C@@H](Cc2nnn[nH]2)CCN1` (racemic), for which the IC50 in test [1] was 4200 nM; in test [2] it was 107 nM.
On the same counts, the results for `O=C(O)[C@H]1C[C@@H](Cc2nnn[nH]2)CCN1` (stereo in doubt) are 1900 nM and 67 nM.
